Assay results: patent publication US10533207B2, “Bioactivity testing structure for single cell tracking using gelling agents” (QuantaMatrix Inc., priority 2014, dated 2020)
In brackets after ≈: the same amount, converted by molar mass.

Legend:
Assay type in all cases: cell-based, Mycobacterium tuberculosis
clinical strain KHS = assay: Inoculum effect on clinical strains on the DAC system
Description: (§1) Mycobacterium tuberculosis identified by ZN staining and grown from an L-J slope or MGIT tube and was subjected to DST. For the preparation of inoculation from the LJ culture, colonies up to 14 days were extracted from the grown culture. The colonies were shaken with glass beads to crush large lumps. To obtain a high density (˜5×10^9 CFU/ml), the suspension was centrifuged at 3000 g for 10 min and pellets were resuspended in sterile PBS. Subsequently, the suspension was added to liquid agarose, inoculated in a bacteria-agarose mixture within the range of 10^1 to 5×10^8 CFU/ml, and loaded in the main channel After solidification, 7H9 broth containing each antibiotic was applied to the chamber. All bacterial cells were imaged with an inverted optical microscope (IS71, Olympus).
(§2) Clinical strains express various phenotypes, particularly, in drug susceptibility. […] Rifampicin, isoniazid, streptomycin, and ethambutol were used as test drugs. For the 131 strains, the highest concentration was 1.3×10^9.

clinical strain CYD = assay: as above
Description: as §1, §2

clinical strain MSH = assay: as above
Description: as §1, §2

clinical strain 131 = assay: as above
Description: as §1, §2

clinical strain 1088 = assay: as above
Description: as §1, §2

clinical strain CMS = assay: as above
Description: as §1, §2

XDR-TB clinical strain = assay: DST of MTB using the DAC system (MIC from time-lapse images); conditions: for susceptibility determined from the MIC data and the critical concentrations: DAC system, XDR strain; for MIC: Mycobacterium tuberculosis, 120 h
standard strain H37Rv = assay: Inoculum effect test, DST on the DAC system
MDR-TB clinical strain = assay: DST of MTB using the DAC system (MIC from time-lapse images); conditions: for susceptibility determined from the MIC data and the critical concentrations: DAC system, MDR strain; for MIC: Mycobacterium tuberculosis, 120 h
M. tuberculosis H37Rv = assay: as above; conditions: for MIC: Mycobacterium tuberculosis, 120 h, images over 5 days; for susceptibility of the strain (in words): from the MIC data
[1] = inoculum 10^4/mL, DAC, unit inferred
[2] = inoculum 10^5/mL, DAC, unit inferred
[3] = inoculum 10^6/mL, MAC2, unit inferred
[4] = inoculum 10^7/mL, MAC2, unit inferred
[5] = inoculum 10^3/mL, DAC, unit inferred

NNC(=O)c1ccncc1 [INH, isoniazid]
MIC (DAC) (clinical strain KHS; [1]): 0.05 µg/mL (≈ 0.365 µM) | MIC (DAC) (clinical strain KHS; [2]): 0.025 µg/mL (≈ 0.182 µM) | MIC (DAC) (clinical strain KHS; [3]): 0.025 µg/mL (≈ 0.182 µM) | MIC (DAC) (clinical strain KHS; [4]): 0.025 µg/mL (≈ 0.182 µM) | MIC (DAC) (clinical strain CYD; [1]): 0.05 µg/mL (≈ 0.365 µM) | MIC (DAC) (clinical strain CYD; [2]): 0.025 µg/mL (≈ 0.182 µM) | MIC (DAC) (clinical strain CYD; [3]): 0.025 µg/mL (≈ 0.182 µM) | MIC (DAC) (clinical strain CYD; [4]): 0.025 µg/mL (≈ 0.182 µM) | MIC (DAC) (clinical strain MSH; [1]): 0.025 µg/mL (≈ 0.182 µM) | MIC (DAC) (clinical strain MSH; [2]): 0.025 µg/mL (≈ 0.182 µM) | MIC (DAC) (clinical strain MSH; [3]): 0.025 µg/mL (≈ 0.182 µM) | MIC (DAC) (clinical strain MSH; [4]): 0.025 µg/mL (≈ 0.182 µM) | MIC (DAC) (clinical strain 131; [5]): 0.2 µg/mL (≈ 1.46 µM) | MIC (DAC) (clinical strain 131; [1]): > 0.2 µg/mL | MIC (DAC) (clinical strain 131; [2]): > 0.2 µg/mL | MIC (DAC) (clinical strain 131; [3]): > 0.2 µg/mL | MIC (DAC) (clinical strain 131; [4]): > 0.2 µg/mL | MIC (DAC) (clinical strain 1088; [5]): ≥ 0.2 µg/mL | MIC (DAC) (clinical strain 1088; [1]): 0.2 µg/mL (≈ 1.46 µM) | MIC (DAC) (clinical strain 1088; [2]): 0.2 µg/mL (≈ 1.46 µM) | MIC (DAC) (clinical strain 1088; [3]): ≥ 0.2 µg/mL | MIC (DAC) (clinical strain 1088; [4]): ≥ 0.2 µg/mL | MIC (DAC) (clinical strain CMS; [1]): 0.05 µg/mL (≈ 0.365 µM) | MIC (DAC) (clinical strain CMS; [2]): 0.025 µg/mL (≈ 0.182 µM) | MIC (DAC) (clinical strain CMS; [3]): 0.025 µg/mL (≈ 0.182 µM) | MIC (DAC) (clinical strain CMS; [4]): 0.05 µg/mL (≈ 0.365 µM) | susceptibility determined from the MIC data and the critical concentrations (XDR-TB clinical strain): R | MIC (XDR-TB clinical strain): > 0.2 µg/mL | MIC (DAC) (standard strain H37Rv; [5]): 0.05 µg/mL (≈ 0.365 µM) | MIC (DAC) (standard strain H37Rv; [1]): 0.05 µg/mL (≈ 0.365 µM) | MIC (DAC) (standard strain H37Rv; [2]): 0.05 µg/mL (≈ 0.365 µM) | MIC (DAC) (standard strain H37Rv; [3]): 0.05 µg/mL (≈ 0.365 µM) | MIC (DAC) (standard strain H37Rv; [4]): 0.05 µg/mL (≈ 0.365 µM) | susceptibility determined from the MIC data and the critical concentrations (MDR-TB clinical strain): R | MIC (MDR-TB clinical strain): > 0.2 µg/mL | susceptibility determined from the MIC data and the critical concentrations (M. tuberculosis H37Rv): S | MIC (M. tuberculosis H37Rv): 0.05 µg/mL (≈ 0.365 µM) | susceptibility of the strain (in words) (M. tuberculosis H37Rv): sensitive

CO[C@H]1/C=C/O[C@@]2(C)Oc3c(C)c(O)c4c(O)c(c(/C=N/N5CCN(C)CC5)c(O)c4c3C2=O)NC(=O)/C(C)=C\C=C\[C@H](C)[C@H](O)[C@@H](C)[C@@H](O)[C@@H](C)[C@H](OC(C)=O)[C@@H]1C [RFP, rifampicin]
MIC (DAC) (clinical strain KHS; [1]): 0.25 µg/mL (≈ 0.304 µM) | MIC (DAC) (clinical strain KHS; [2]): 0.25 µg/mL (≈ 0.304 µM) | MIC (DAC) (clinical strain KHS; [3]): 0.25 µg/mL (≈ 0.304 µM) | MIC (DAC) (clinical strain KHS; [4]): 0.5 µg/mL (≈ 0.608 µM) | MIC (DAC) (clinical strain CYD; [1]): 0.25 µg/mL (≈ 0.304 µM) | MIC (DAC) (clinical strain CYD; [2]): 0.25 µg/mL (≈ 0.304 µM) | MIC (DAC) (clinical strain CYD; [3]): 0.25 µg/mL (≈ 0.304 µM) | MIC (DAC) (clinical strain CYD; [4]): 0.5 µg/mL (≈ 0.608 µM) | MIC (DAC) (clinical strain MSH; [1]): 0.25 µg/mL (≈ 0.304 µM) | MIC (DAC) (clinical strain MSH; [2]): 0.25 µg/mL (≈ 0.304 µM) | MIC (DAC) (clinical strain MSH; [3]): 0.25 µg/mL (≈ 0.304 µM) | MIC (DAC) (clinical strain MSH; [4]): 0.5 µg/mL (≈ 0.608 µM) | MIC (DAC) (clinical strain 131; [5]): > 2 µg/mL | MIC (DAC) (clinical strain 131; [1]): > 2 µg/mL | MIC (DAC) (clinical strain 131; [2]): > 2 µg/mL | MIC (DAC) (clinical strain 131; [3]): > 2 µg/mL | MIC (DAC) (clinical strain 131; [4]): > 2 µg/mL | MIC (DAC) (clinical strain 1088; [5]): ≥ 2 µg/mL | MIC (DAC) (clinical strain 1088; [1]): ≥ 2 µg/mL | MIC (DAC) (clinical strain 1088; [2]): ≥ 2 µg/mL | MIC (DAC) (clinical strain 1088; [3]): ≥ 2 µg/mL | MIC (DAC) (clinical strain 1088; [4]): ≥ 2 µg/mL | MIC (DAC) (clinical strain CMS; [1]): 0.25 µg/mL (≈ 0.304 µM) | MIC (DAC) (clinical strain CMS; [2]): 0.25 µg/mL (≈ 0.304 µM) | MIC (DAC) (clinical strain CMS; [3]): 0.5 µg/mL (≈ 0.608 µM) | MIC (DAC) (clinical strain CMS; [4]): 0.5 µg/mL (≈ 0.608 µM) | susceptibility determined from the MIC data and the critical concentrations (XDR-TB clinical strain): R | MIC (XDR-TB clinical strain): > 2 µg/mL | MIC (DAC) (standard strain H37Rv; [5]): 0.5 µg/mL (≈ 0.608 µM) | MIC (DAC) (standard strain H37Rv; [1]): 0.5 µg/mL (≈ 0.608 µM) | MIC (DAC) (standard strain H37Rv; [2]): 0.5 µg/mL (≈ 0.608 µM) | MIC (DAC) (standard strain H37Rv; [3]): 0.5 µg/mL (≈ 0.608 µM) | MIC (DAC) (standard strain H37Rv; [4]): 0.5 µg/mL (≈ 0.608 µM) | susceptibility determined from the MIC data and the critical concentrations (MDR-TB clinical strain): R | MIC (MDR-TB clinical strain): > 2 µg/mL | susceptibility determined from the MIC data and the critical concentrations (M. tuberculosis H37Rv): S | MIC (M. tuberculosis H37Rv): 0.25 µg/mL (≈ 0.304 µM)

[H]/N=C(/N)N[C@H]1[C@H](O)[C@@H](O)[C@H](O[C@@H]2O[C@@H](C)[C@](O)(C=O)[C@H]2O[C@@H]2O[C@@H](CO)[C@H](O)[C@@H](O)[C@@H]2NC)[C@@H](N/C(N)=N\[H])[C@@H]1O [SM, streptomycin]
MIC (DAC) (clinical strain KHS; [1]): 0.5 µg/mL (≈ 0.86 µM) | MIC (DAC) (clinical strain KHS; [2]): 0.25 µg/mL (≈ 0.43 µM) | MIC (DAC) (clinical strain KHS; [3]): 0.5 µg/mL (≈ 0.86 µM) | MIC (DAC) (clinical strain KHS; [4]): 1 µg/mL (≈ 1.72 µM) | MIC (DAC) (clinical strain CYD; [1]): 0.5 µg/mL (≈ 0.86 µM) | MIC (DAC) (clinical strain CYD; [2]): 0.25 µg/mL (≈ 0.43 µM) | MIC (DAC) (clinical strain CYD; [3]): 0.5 µg/mL (≈ 0.86 µM) | MIC (DAC) (clinical strain CYD; [4]): 1 µg/mL (≈ 1.72 µM) | MIC (DAC) (clinical strain MSH; [1]): 0.25 µg/mL (≈ 0.43 µM) | MIC (DAC) (clinical strain MSH; [2]): 0.25 µg/mL (≈ 0.43 µM) | MIC (DAC) (clinical strain MSH; [3]): 1 µg/mL (≈ 1.72 µM) | MIC (DAC) (clinical strain MSH; [4]): 0.5 µg/mL (≈ 0.86 µM) | MIC (DAC) (clinical strain 131; [5]): > 4 µg/mL | MIC (DAC) (clinical strain 131; [1]): > 4 µg/mL | MIC (DAC) (clinical strain 131; [2]): > 4 µg/mL | MIC (DAC) (clinical strain 131; [3]): > 4 µg/mL | MIC (DAC) (clinical strain 131; [4]): > 4 µg/mL | MIC (DAC) (clinical strain 1088; [5]): ≥ 4 µg/mL | MIC (DAC) (clinical strain 1088; [1]): ≥ 4 µg/mL | MIC (DAC) (clinical strain 1088; [2]): ≥ 4 µg/mL | MIC (DAC) (clinical strain 1088; [3]): ≥ 4 µg/mL | MIC (DAC) (clinical strain 1088; [4]): ≥ 4 µg/mL | MIC (DAC) (clinical strain CMS; [1]): 0.5 µg/mL (≈ 0.86 µM) | MIC (DAC) (clinical strain CMS; [2]): 0.5 µg/mL (≈ 0.86 µM) | MIC (DAC) (clinical strain CMS; [3]): 1 µg/mL (≈ 1.72 µM) | MIC (DAC) (clinical strain CMS; [4]): 1 µg/mL (≈ 1.72 µM) | susceptibility determined from the MIC data and the critical concentrations (XDR-TB clinical strain): R | MIC (XDR-TB clinical strain): > 4 µg/mL | MIC (DAC) (standard strain H37Rv; [5]): 2 µg/mL (≈ 3.44 µM) | MIC (DAC) (standard strain H37Rv; [1]): 2 µg/mL (≈ 3.44 µM) | MIC (DAC) (standard strain H37Rv; [2]): 2 µg/mL (≈ 3.44 µM) | MIC (DAC) (standard strain H37Rv; [3]): 2 µg/mL (≈ 3.44 µM) | MIC (DAC) (standard strain H37Rv; [4]): > 2 µg/mL | susceptibility determined from the MIC data and the critical concentrations (MDR-TB clinical strain): R | MIC (MDR-TB clinical strain): > 4 µg/mL | susceptibility determined from the MIC data and the critical concentrations (M. tuberculosis H37Rv): R | MIC (M. tuberculosis H37Rv): 2 µg/mL (≈ 3.44 µM) | susceptibility of the strain (in words) (M. tuberculosis H37Rv): sensitive
